Literature values, collected in patent US20240100008A1, “ADMINISTRATION OF GLYCEROL TRIBENZOATE AND GLYCEROL PHENYLBUTYRATE FOR TREATMENT OF NEURODEGENERATIVE AND UREA CYCLE DISORDERS” (Rush University Medical Center, priority 2020, published 2024).

What was measured:
[1] = not given; remark: listed apart in the source
[2] = tested on: multiple sclerosis in mice
DJ-1 = settings: astrocytes and neurons
BDNF = settings: brain cells
NT-3 = settings: brain cells
[3] = tested on: animal model of Alzheimer's disease

O=C(CCCc1ccccc1)OCC(COC(=O)CCCc1ccccc1)OC(=O)CCCc1ccccc1 [glycerol phenylbutyrate, Glycerol phenylbutyrate]
side effect (in vivo, po): diarrhea is a common side effect

O=C(OCC(COC(=O)c1ccccc1)OC(=O)c1ccccc1)c1ccccc1 [glyceryl (i.e. glycerol) tribenzoate, glycerol tribenzoate]
release form of sodium benzoate ([1]; in vivo): sustained-release and a slow-release form

O=C([O-])c1ccccc1.[Na+] [sodium benzoate, Sodium benzoate]
disease process of multiple sclerosis [2]: suppresses
DJ-1 protein level (DJ-1): upregulates
production of BDNF (BDNF): increases
production of NT-3 (NT-3): increases
memory and learning [3]: protecting memory and learning
oxidative stress [3]: attenuating oxidative stress
excretion from the body ([1]; through urine): quickly excreted
side effects (patients, high dose sodium benzoate several times a day): feel drowsy and also suffer from nausea, vomiting and headache
